Data as given in PubChem BioAssay AID652274 (Broad Institute, 2013).
Results filed as inconclusive are left out.

Tested on: washed human platelets, SFLLRN aggregation after wash, transmittance
Assay: irreversible platelet aggregation inhibition after washout, late-stage follow-up, mechanism study for PDI inhibitor project, cell-based, aggregometer, SFLLRN stimulus, single point, dry powder (AID 652274)
Conditions: at 30 µM

Q: With `C/C1=C\C[C@H](OC(=O)c2ccc(O)cc2)/C(C)=C/[C@@H](O)C(C)(C)CCC1` as the molecule, how does the platelet aggregation inhibition after wash (%), stronger effect = higher value read?
A: Its platelet aggregation inhibition after wash (%), stronger effect = higher value is 100%.
